Source: patent EP4653435A1, “PRMT5-MTA INHIBITOR” (Suzhou Puhe Biopharma Co., Ltd., priority 2023, dated 2024)
Where two headings read alike, the source gives them in different places.

Tests used:
[1] = test system: HCT116-MTAPwt; assay: 2D antiproliferative assay (CTG cell viability), wild-type cells; type: cell-based; settings: Homo sapiens, HCT-116, 7-10 days
Description: (§1) HCT116 wild-type and MTAP-deficient cells were cultured in McCoy's 5A medium containing 10% FBS and 1% penicillin-streptomycin, and cultured in a 37°C, 5% CO2 constant temperature incubator. 40 µL of cell suspension was introduced into each well of a 384-well microplate. 40 nL of different concentrations of test compounds were added to each well using an Echo, before culturing in a 37°C, 5% CO2 constant temperature incubator for 7-10 days. 40 µL of CTG solution (Promega, Cat No. G7573) was added to each well and incubated in a 37°C, 5% CO2 constant temperature incubator for 30 minutes in the dark.

[2] = Liver microsomal stability assay, human
Description: The compounds to be tested were co-incubated with liver microsomes of different species with or without the addition of NADPH. The final concentration of the test compounds in the test system was 1 µM, the final concentration of NADPH was 1 mM, and the final concentration of liver microsomes was 0.5 mg/mL.

[3] = test system: HCT116-MTAPdel; assay: 2D antiproliferative assay (CTG cell viability), MTAP-deficient cells; type: cell-based; settings: for IC50: Homo sapiens; for HCT116WT IMTAPdel selectivity: ratio IC50 wild type / MTAPdel, antiproliferation
Description: as §1

[4] = HCT-116, HCT116 MTAP-deficient cells, 7-10 days, CTG, read-out: HCT116-MTAPdel/IC50/nM

Row | IC50 [1] [nM] | IC50 [3, 4] [nM] | CLint scaled at 1 h, 1 µM ([2]; microsomes) [mL/min/kg] | CLint scaled at 1 µM ([2]; liver microsomes) [mL/min/kg] | SMILES | CLint scaled at 1 h, 1 µM ([2]; liver microsomes) [mL/min/kg] | HCT116WT IMTAPdel selectivity [3] | IC50 ([3]; HCT-116, read-out: HCT116-MTAPdel/IC50/nM) [nM]
1 | 800 | 10 | – | – | Cc1nc2cc(C3CCC(C)CN3C(=O)C(=O)Nc3cnc(N)c4c3cnn4C)ccc2s1 (racemic) [Compound P10] | – | 80 | –
2 | 855 | 15 | 16.5 | – | C[C@H]1COC[C@@H](c2ccc(C(F)(F)F)cn2)N1C(=O)C(=O)Nc1cnc(N)c2c1cnn2C (racemic) [Compound P11] | – | 57 | –
3 | 607 | 5 | – | – | C[C@H]1COC[C@@H](c2ccc(OC(F)(F)F)cc2)N1C(=O)C(=O)Nc1cnc(N)c2c1cnn2C (racemic) [Compound P12] | – | 121 | –
4 | 295 | 11 | – | – | C[C@H]1CC[C@H](c2ccc3sc(CN(C)C)nc3c2)N(C(=O)C(=O)Nc2cnc(N)c3c2cnn3C)C1 (racemic) [Compound P14] | – | 27 | –
5 | 203 | 6 | 9.7 | – | C[C@H]1CC[C@H](c2ccc3sc(CCN(C)C)nc3c2)N(C(=O)C(=O)Nc2cnc(N)c3c2cnn3C)C1 (racemic) [Compound P15] | – | 34 | –
6 | 891 | 11 | – | – | C[C@H]1CC[C@H](c2ccc3sc(C(F)(F)F)nc3c2)N(C(=O)C(=O)Nc2cnc(N)c3c2cnn3C)C1 (racemic) [Compound P16] | – | 81 | –
7 | 606 | 8 | – | – | C[C@H]1CC[C@H](c2ccc3sc(-c4cccnc4)nc3c2)N(C(=O)C(=O)Nc2cnc(N)c3c2cnn3C)C1 (racemic) [Compound P17] | – | 76 | –
8 | 900 | 14 | – | – | C[C@H]1CC[C@H](c2ccc3sc(C4CCOCC4)nc3c2)N(C(=O)C(=O)Nc2cnc(N)c3c2cnn3C)C1 (racemic) [Compound P18] | – | 64 | –
9 | > 10000 | > 10000 | – | – | Cn1ncc2c(NC(=O)C(=O)NC3COc4cc(C(F)(F)F)ccc43)cnc(N)c21 (stereo not shown) [Compound A1, reference compound] | – | – | –
10 | 2320 | 9 | – | – | CN(C(=O)C(=O)Nc1cnc(N)c2c1cnn2C)[C@@H]1COc2cc(-c3cncc(Cl)c3)ccc21 [Compound H1a] | – | 258 | –
11 | > 10000 | 300 | – | – | CN(C(=O)C(=O)Nc1cnc(N)c2c1cnn2C)[C@H]1COc2cc(-c3cncc(Cl)c3)ccc21 [Compound H1b] | – | >33 | –
12 | > 10000 | 224 | – | – | CN(C(=O)C(=O)Nc1cnc(N)c2c1cnn2C)[C@H]1COCc2nc(-c3cncc(Cl)c3)ccc21 [Compound H2a] | – | >45 | –
13 | 1230 | 4 | – | 21.3 | CN(C(=O)C(=O)Nc1cnc(N)c2c1cnn2C)[C@@H]1COCc2nc(-c3cncc(Cl)c3)ccc21 [Compound H2b] | – | 308 | –
14 | > 10000 | 118 | – | – | CN(C(=O)C(=O)Nc1cnc(N)c2c1cnn2C)[C@H]1COc2cc(C(F)(F)F)ccc21 [Compound P2b] | – | 85 | –
15 | > 10000 | 813 | – | – | C[C@H](c1ncccn1)N(Cc1ccc(C(F)(F)F)cn1)C(=O)C(=O)Nc1cnc(N)c2cnn(C)c12 [Compound P4] | – | >12 | –
16 | 1300 | 18 | – | – | CCn1ncc2c(NC(=O)C(=O)N(Cc3ccc(C(F)(F)F)cn3)[C@H](C)c3ncccn3)cnc(N)c21 [Compound P6] | – | 72 | –
17 | 2520 | 56 | – | – | C[C@H](c1ncccn1)N(Cc1ccc(C(F)(F)F)cn1)C(=O)C(=O)Nc1cnc(N)c2c1cnn2C1CC1 [Compound P7] | – | 45 | –
18 | 161 | 4 | – | – | C[C@H](c1ncccn1)N(Cc1ccc(-c2cncc(Cl)c2)cn1)C(=O)C(=O)Nc1cnc(N)c2c1cnn2C [Compound P8] | – | 40 | –
19 | 1420 | 24 | – | 5 | CN(C(=O)C(=O)Nc1cnc(N)c2c1cnn2C)C1COCc2nc(C(F)(F)F)ccc21 (stereo not shown) [Compound P9] | – | 59 | –
20 | > 10000 | 883 | – | – | CN(C(=O)C(=O)Nc1cnc(N)c2c1cnn2C)[C@H]1COCc2nc(C(F)(F)F)ccc21 [Compound P9b] | – | >11 | –

Row | IC50 [1] [nM] | IC50 [3, 4] [nM] | CLint scaled at 1 h, 1 µM ([2]; microsomes) [mL/min/kg] | CLint scaled at 1 µM ([2]; liver microsomes) [mL/min/kg] | SMILES | CLint scaled at 1 h, 1 µM ([2]; liver microsomes) [mL/min/kg] | HCT116WT IMTAPdel selectivity [3] | IC50 ([3]; HCT-116, read-out: HCT116-MTAPdel/IC50/nM) [nM]
21 | > 10000 | 1910 | – | – | C[C@H]1COC[C@@H](c2ccc(C(F)(F)F)cn2)N1C(=O)C(=O)Nc1cnc(N)c2c1cnn2C [Compound P11a] | – | >5 | –
22 | 427 | 8 | – | – | C[C@@H]1COC[C@H](c2ccc(C(F)(F)F)cn2)N1C(=O)C(=O)Nc1cnc(N)c2c1cnn2C [Compound P11b] | – | 53 | –
23 | > 10000 | 616 | – | – | C[C@H]1COC[C@@H](c2ccc(-c3cncc(Cl)c3)cn2)N1C(=O)C(=O)Nc1cnc(N)c2c1cnn2C [Compound P13a] | – | >16 | –
24 | 506 | 2 | – | – | C[C@@H]1COC[C@H](c2ccc(-c3cncc(Cl)c3)cn2)N1C(=O)C(=O)Nc1cnc(N)c2c1cnn2C [Compound P13b] | – | 253 | –
25 | 3860 | 261 | – | – | CCN(C(=O)C(=O)Nc1cnc(N)c2c1cnn2C)[C@H]1COc2cc(C(F)(F)F)ccc21 [Compound P19b] | – | 15 | –
26 | 6020 | 28 | – | 19.2 | Cn1ncc2c(NC(=O)C(=O)N(CC(F)(F)F)[C@@H]3COc4cc(C(F)(F)F)ccc43)cnc(N)c21 [Compound P20a] | – | 215 | –
27 | > 10000 | 883 | – | – | Cn1ncc2c(NC(=O)C(=O)N(CC(F)(F)F)[C@H]3COc4cc(C(F)(F)F)ccc43)cnc(N)c21 [Compound P20b] | – | 11 | –
28 | > 10000 | 978 | – | – | Cn1ncc2c(NC(=O)C(=O)N(C3CC3)[C@H]3COc4cc(C(F)(F)F)ccc43)cnc(N)c21 [Compound P21a] | – | 10 | –
29 | 847 | 6 | – | – | Cn1ncc2c(NC(=O)C(=O)N(C3CC3)[C@@H]3COc4cc(C(F)(F)F)ccc43)cnc(N)c21 [Compound P21b] | – | 141 | –
30 | 1710 | 17 | – | – | [2H]C([2H])([2H])n1ncc2c(NC(=O)C(=O)N(C)[C@@H]3COc4cc(C(F)(F)F)ccc43)cnc(N)c21 [Compound P23] | – | 101 | –
31 | > 10000 | 2410 | – | – | CCn1ncc2c(NC(=O)C(=O)N(C)[C@@H]3COc4cc(C(F)(F)F)ccc43)cnc(N)c21 [Compound P24] | – | >4 | –
32 | > 10000 | 1260 | – | – | CCn1ncc2c(NC(=O)C(=O)N(C)[C@@H]3COCc4nc(C(F)(F)F)ccc43)cnc(N)c21 [Compound P25] | – | >8 | –
33 | 4550 | 12 | – | – | [2H]C([2H])([2H])n1ncc2c(NC(=O)C(=O)N(C)[C@@H]3COCc4nc(C(F)(F)F)ccc43)cnc(N)c21 [Compound P26] | – | 380 | –
34 | 2110 | 15 | – | – | [2H]C([2H])([2H])N(C(=O)C(=O)Nc1cnc(N)c2c1cnn2C)[C@@H]1COCc2nc(C(F)(F)F)ccc21 [Compound P27] | – | 141 | –
35 | 2340 | 986 | – | – | CCN(C(=O)C(=O)Nc1cnc(N)c2c1cnn2C)[C@H]1COCc2nc(C(F)(F)F)ccc21 [Compound P28a] | – | 2 | –
36 | 1550 | 7 | – | – | CN(C(=O)C(=O)Nc1cnc(N)c2c1cnn2C)[C@@H]1COc2cc(OC(F)(F)F)ccc21 [Compound P30a] | – | 221 | –
37 | > 10000 | 191 | – | – | CN(C(=O)C(=O)Nc1cnc(N)c2c1cnn2C)[C@H]1COc2cc(OC(F)(F)F)ccc21 [Compound P30b] | – | >52 | –
38 | 3580 | 21 | – | – | CSc1ccc2c(c1)OCC2N(C)C(=O)C(=O)Nc1cnc(N)c2c1cnn2C (stereo not shown) [Compound P31] | – | 171 | –
39 | 72 | 17 | – | – | CC(=O)N1CCC(Nc2cc(C(=O)NC[C@H](O)CN3CCc4ccccc4C3)ncn2)CC1 [GSK3326595, reference compound] | – | 4 | –

Row | SMILES | IC50 [1] [nM] | IC50 [3, 4] [nM] | CLint scaled at 1 h, 1 µM ([2]; microsomes) [mL/min/kg] | CLint scaled at 1 µM ([2]; liver microsomes) [mL/min/kg] | CLint scaled at 1 h, 1 µM ([2]; liver microsomes) [mL/min/kg] | HCT116WT IMTAPdel selectivity [3] | IC50 ([3]; HCT-116, read-out: HCT116-MTAPdel/IC50/nM) [nM]
40 | CC1CCC(c2ccc3sc(C4CCN(C)CC4)nc3c2)N(C(=O)C(=O)Nc2cnc(N)c3c2cnn3C)C1 (racemic) [Compound P5] | 36 | 4 | – | – | 10.7 | 9 | –
41 | C[C@@H]1CC[C@@H](c2ccc3scnc3c2)N(C(=O)C(=O)Nc2cnc(N)c3c2cnn3C)C1 [Compound P3a] | > 10000 | – | – | – | – | – | 666
